Experimental data: ChEMBL document CHEMBL1201862, “PubChem BioAssay data set” (2004)
Calls of active or inactive are those of the source.

How the values were obtained:
Coagulation factor XII = target: T1, Coagulation factor XII (Homo sapiens, UniProt P00748); type: functional;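 note: activated factor XIIa alpha cleaving a fluorogenic AMC peptide substrate; inhibitor potency from loss of enzyme activity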
T1 sequence (P00748 whole entry): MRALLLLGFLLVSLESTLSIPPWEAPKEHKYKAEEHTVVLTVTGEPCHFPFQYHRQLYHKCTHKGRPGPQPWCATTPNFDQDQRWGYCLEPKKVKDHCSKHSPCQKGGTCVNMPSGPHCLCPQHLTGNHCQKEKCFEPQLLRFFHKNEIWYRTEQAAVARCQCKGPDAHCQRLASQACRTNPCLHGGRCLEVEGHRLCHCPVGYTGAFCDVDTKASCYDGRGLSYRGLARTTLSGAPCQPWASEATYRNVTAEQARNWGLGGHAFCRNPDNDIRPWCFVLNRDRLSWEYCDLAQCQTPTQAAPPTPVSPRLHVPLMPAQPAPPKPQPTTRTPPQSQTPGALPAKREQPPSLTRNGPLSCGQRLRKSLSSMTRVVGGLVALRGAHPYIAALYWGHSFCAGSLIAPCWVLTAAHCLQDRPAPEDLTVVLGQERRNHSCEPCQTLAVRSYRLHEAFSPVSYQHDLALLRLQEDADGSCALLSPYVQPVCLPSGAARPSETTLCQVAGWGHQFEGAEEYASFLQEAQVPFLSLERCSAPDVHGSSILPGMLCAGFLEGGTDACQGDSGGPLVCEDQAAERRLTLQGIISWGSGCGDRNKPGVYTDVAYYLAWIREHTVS

Prothrombin = Prothrombin (Homo sapiens, UniProt P00734); experiment: Thrombin 1536 HTS Dose Response Confirmation. [Related pubchem assays: 1046 (Thrombin 1536 HTS; hits were confirmed in this assay)]; type: functional
Streptococcus = experiment: GAS UMAA2166 growth inhibition – luminescence, BacTiterGlo, counter-screen for streptokinase expression inhibitor project, dose response (AID 1915); type: functional, organism-based;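 note: potency for reduction of bacterial viability or growth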
Streptokinase A = target: T2, Streptokinase A (Streptococcus pyogenes serotype M1, UniProt P10520); experiment: viability-normalized secreted streptokinase activity reduction – plasminogen activation absorbance, OD405, dose response (AID 1914); type: functional, Streptococcus pyogenes M1 GAS;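 note: secreted streptokinase activity via plasminogen activation per viability signal from cell pellet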
T2 sequence (P10520 whole entry): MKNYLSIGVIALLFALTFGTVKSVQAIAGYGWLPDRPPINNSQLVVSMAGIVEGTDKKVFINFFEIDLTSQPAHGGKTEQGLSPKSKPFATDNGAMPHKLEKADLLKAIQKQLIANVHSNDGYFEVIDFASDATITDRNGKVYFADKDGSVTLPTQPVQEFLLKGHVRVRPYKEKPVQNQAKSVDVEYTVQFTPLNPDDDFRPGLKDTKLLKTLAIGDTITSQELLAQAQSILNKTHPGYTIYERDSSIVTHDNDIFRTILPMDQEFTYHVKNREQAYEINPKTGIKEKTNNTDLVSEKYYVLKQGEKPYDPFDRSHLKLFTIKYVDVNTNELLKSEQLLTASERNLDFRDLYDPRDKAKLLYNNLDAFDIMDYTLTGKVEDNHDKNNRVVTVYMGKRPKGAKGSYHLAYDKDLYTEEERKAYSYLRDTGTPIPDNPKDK

[1] = tested on: Streptococcus sp. 'group A'; experiment: Streptococcus pyogenes SK(-)GAS viability under kanamycin – luminescence, BacTiterGlo, confirmation, counter-screen for streptokinase expression inhibitor project, dose response (AID 1900); type: functional, organism-based
Nonstructural protein 1 = Nonstructural protein 1 (Influenza A virus, UniProt Q194T2); type: functional, Influenza A virus (A/California/07/2009(H1N1))
Chain of Nonstructural protein 1 (Q194T2 whole entry): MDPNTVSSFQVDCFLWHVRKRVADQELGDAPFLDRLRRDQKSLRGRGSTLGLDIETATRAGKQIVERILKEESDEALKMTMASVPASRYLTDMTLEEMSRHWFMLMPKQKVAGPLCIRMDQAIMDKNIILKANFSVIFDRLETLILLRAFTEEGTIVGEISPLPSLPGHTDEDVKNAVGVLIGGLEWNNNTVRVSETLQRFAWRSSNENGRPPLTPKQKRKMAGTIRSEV

H9c2 = experiment: cells; type: functional, cell-based; conditions: Rattus norvegicus, H9c2, Myocardium
Cytochrome P450 2C19 = Cytochrome P450 2C19 (Homo sapiens, UniProt P33261); experiment: Cytochrome panel assay with activity outcomes. Panel member name: p450-cyp2c19 Compounds with AC50 equal or less than 10 uM are considered active; type: functional; conditions: read-out: AC50
Chain of Cytochrome P450 2C19 (P33261 whole entry): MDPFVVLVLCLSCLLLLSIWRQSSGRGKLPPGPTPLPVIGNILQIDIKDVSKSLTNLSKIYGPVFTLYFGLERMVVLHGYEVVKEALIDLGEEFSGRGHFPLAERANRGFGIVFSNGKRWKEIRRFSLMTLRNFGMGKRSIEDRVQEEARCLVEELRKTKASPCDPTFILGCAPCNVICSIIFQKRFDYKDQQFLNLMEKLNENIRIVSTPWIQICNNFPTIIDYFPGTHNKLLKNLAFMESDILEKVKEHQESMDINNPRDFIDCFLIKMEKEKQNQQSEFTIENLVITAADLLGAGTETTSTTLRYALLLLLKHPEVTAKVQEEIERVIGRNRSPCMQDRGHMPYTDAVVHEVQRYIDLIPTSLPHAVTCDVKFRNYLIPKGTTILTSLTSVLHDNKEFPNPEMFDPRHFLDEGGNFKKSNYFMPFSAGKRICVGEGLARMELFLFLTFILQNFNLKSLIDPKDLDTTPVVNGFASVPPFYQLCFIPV

Cytochrome P450 2D6 = Cytochrome P450 2D6 (Homo sapiens, UniProt P10635);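 note: CYP2D6 member of a cytochrome P450 panel assay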
Chain of Cytochrome P450 2D6 (P10635 whole entry): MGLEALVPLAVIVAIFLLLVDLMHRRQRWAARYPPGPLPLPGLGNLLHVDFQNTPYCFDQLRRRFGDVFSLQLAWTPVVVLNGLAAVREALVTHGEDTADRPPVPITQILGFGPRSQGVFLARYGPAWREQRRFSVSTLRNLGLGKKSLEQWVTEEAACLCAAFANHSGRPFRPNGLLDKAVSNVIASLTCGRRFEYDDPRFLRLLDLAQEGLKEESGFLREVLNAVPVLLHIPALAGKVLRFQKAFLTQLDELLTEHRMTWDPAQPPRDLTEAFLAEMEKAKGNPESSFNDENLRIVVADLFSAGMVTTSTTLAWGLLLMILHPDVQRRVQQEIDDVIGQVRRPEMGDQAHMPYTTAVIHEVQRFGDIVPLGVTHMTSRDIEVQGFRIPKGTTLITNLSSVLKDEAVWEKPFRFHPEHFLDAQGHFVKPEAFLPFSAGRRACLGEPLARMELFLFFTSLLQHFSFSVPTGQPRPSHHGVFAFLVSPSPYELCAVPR

[2] = target: T3, Mannose-6-phosphate isomerase (Homo sapiens, UniProt P34949); experiment: MPI inhibition at elevated mannose 6-phosphate – biochemical, fluorescence intensity, high mannose 6-phosphate, primary screen (AID 1220)
T3 sequence (P34949 whole entry): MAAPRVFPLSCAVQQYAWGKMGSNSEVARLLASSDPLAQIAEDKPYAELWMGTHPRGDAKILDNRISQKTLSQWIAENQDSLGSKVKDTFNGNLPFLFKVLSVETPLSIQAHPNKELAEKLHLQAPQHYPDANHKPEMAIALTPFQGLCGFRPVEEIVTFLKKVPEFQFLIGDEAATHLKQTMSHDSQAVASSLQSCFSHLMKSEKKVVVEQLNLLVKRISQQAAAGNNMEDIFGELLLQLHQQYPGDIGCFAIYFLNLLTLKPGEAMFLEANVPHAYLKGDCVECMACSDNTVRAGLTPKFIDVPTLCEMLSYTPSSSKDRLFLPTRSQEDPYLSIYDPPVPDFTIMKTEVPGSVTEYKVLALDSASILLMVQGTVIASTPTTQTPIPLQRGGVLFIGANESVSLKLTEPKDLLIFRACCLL

Cytochrome P450 2C9 = Cytochrome P450 2C9 (Homo sapiens, UniProt P11712)
Chain of Cytochrome P450 2C9 (P11712 whole entry): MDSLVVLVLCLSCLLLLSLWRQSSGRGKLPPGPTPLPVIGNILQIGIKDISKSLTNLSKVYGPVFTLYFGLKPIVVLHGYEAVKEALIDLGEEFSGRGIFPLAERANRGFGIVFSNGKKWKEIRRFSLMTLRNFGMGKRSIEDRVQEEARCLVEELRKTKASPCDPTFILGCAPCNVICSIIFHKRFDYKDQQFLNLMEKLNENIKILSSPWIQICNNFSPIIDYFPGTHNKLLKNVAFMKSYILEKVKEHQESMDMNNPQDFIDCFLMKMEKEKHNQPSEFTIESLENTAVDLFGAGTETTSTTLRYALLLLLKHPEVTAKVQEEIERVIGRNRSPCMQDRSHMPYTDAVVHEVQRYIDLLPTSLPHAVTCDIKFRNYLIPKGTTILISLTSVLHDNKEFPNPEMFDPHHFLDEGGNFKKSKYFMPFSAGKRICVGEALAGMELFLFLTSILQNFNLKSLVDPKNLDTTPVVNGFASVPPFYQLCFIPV

[3] = target: T4, Histone-lysine N-methyltransferase NSD2 (Homo sapiens, UniProt O96028); type: biochemical
T4 sequence (O96028 whole entry): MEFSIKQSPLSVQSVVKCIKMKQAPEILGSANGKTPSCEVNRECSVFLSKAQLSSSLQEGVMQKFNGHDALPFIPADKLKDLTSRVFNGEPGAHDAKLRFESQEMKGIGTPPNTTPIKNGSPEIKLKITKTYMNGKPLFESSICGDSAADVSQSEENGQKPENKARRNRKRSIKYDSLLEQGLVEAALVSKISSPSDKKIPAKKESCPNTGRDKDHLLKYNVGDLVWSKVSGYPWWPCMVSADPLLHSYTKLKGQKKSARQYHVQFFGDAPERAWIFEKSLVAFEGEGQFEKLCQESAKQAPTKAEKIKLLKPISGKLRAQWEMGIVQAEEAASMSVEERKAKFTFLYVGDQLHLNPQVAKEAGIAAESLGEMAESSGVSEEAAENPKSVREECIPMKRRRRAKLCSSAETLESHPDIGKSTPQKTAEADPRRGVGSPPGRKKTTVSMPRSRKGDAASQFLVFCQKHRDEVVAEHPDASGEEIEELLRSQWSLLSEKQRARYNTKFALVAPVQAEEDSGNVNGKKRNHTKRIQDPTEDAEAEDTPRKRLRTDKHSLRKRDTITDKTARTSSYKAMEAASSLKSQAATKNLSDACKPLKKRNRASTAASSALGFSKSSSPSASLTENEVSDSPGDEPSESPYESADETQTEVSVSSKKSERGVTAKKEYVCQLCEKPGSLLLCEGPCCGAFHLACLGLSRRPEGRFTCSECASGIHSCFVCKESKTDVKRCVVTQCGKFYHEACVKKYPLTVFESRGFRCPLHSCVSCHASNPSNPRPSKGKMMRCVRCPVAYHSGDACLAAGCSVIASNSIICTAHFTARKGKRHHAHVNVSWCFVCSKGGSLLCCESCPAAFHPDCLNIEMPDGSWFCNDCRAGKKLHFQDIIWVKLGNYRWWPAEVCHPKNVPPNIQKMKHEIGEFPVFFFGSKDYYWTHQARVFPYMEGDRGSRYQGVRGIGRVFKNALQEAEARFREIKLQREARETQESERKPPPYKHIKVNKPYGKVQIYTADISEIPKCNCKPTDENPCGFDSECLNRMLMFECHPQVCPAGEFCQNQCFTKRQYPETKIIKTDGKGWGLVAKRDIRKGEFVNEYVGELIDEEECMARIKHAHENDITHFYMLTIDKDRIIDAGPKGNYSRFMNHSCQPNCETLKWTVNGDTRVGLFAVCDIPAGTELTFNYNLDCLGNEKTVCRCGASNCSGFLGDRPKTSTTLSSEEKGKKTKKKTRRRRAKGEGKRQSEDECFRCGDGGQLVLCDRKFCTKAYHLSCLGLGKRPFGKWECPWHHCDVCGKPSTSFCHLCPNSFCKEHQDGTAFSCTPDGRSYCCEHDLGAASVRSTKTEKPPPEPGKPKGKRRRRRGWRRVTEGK

cells [4] = type: functional, cell-based
cells [5] = type: functional, cell-based; remark: listed apart in the source
[6] = target: T5, Replicative DNA helicase DnaB (Mycobacterium tuberculosis, UniProt P9WMR3); experiment: DnaB intein splicing inhibitors, dose response, biochemical, cell-free fluorescence (AID 449749); type: functional
T5 sequence (P9WMR3 whole entry): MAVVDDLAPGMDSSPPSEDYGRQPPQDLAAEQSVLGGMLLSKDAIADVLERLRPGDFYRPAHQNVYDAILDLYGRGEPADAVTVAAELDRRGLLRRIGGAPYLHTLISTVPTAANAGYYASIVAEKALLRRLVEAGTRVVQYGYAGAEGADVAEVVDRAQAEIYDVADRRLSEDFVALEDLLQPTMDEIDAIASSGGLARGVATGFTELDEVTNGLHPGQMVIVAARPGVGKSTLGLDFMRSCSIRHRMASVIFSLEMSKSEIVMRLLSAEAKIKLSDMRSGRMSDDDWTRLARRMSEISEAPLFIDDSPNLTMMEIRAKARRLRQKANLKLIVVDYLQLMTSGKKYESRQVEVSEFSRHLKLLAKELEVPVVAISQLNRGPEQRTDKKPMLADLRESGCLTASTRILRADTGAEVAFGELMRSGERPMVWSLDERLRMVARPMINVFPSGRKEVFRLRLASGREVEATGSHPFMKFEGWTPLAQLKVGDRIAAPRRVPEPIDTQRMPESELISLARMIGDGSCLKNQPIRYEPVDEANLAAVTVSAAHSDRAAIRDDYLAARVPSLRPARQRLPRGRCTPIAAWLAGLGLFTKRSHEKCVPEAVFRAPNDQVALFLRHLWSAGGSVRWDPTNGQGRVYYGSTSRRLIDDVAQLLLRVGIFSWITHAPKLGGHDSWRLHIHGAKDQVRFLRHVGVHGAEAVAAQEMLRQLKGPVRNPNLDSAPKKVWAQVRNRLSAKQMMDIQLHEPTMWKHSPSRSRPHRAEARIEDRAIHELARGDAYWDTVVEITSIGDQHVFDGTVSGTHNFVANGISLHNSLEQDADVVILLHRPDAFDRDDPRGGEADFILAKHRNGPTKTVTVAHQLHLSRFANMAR

Protein RecA = target: T6, Protein RecA (Mycobacterium tuberculosis, UniProt P9WHJ3); experiment: Fluorescence Cell-Free Homogeneous Dose Retest to Identify Inhibitors of RecA-Intein Splicing Activity. [Related pubchem assays (depositor defined):AID2097, AID2223, AID489010, AID492950]; type: functional
T6 sequence (P9WHJ3 whole entry): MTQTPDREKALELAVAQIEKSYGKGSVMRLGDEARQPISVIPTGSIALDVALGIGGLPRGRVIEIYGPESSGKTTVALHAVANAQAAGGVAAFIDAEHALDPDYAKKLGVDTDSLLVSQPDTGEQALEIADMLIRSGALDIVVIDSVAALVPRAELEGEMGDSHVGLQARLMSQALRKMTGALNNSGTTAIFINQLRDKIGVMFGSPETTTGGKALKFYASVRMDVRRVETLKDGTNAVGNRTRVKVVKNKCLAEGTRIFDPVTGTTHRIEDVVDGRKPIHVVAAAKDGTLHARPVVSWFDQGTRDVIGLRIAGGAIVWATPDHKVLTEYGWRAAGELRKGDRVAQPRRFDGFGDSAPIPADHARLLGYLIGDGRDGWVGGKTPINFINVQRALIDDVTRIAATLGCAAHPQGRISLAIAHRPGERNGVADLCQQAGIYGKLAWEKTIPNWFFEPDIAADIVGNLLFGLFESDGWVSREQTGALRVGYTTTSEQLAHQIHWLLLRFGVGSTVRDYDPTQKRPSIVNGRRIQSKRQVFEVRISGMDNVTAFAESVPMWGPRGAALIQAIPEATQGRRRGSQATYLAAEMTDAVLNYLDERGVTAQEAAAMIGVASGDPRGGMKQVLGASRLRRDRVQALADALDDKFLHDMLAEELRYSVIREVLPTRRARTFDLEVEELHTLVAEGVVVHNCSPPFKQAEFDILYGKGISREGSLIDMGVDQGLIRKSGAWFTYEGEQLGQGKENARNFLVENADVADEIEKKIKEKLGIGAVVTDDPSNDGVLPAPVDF

## Cc1nn(C)c(C)c1S(=O)(=O)N1CCC(C(=O)NCCC2=CCCCC2)CC1
Coagulation factor XII
  IC50: > 50 µM (inactive)
Prothrombin
  IC50: > 50 µM (not active)

## Cc1cc(C)n(-c2nnc(C)n2NS(=O)(=O)c2ccc(F)cc2)n1
Coagulation factor XII
  IC50: > 50 µM (inactive)

## CS(=O)(=O)c1ccc2nc(NC(=O)c3ccc(NS(=O)(=O)c4cccc([N+](=O)[O-])c4)cc3)sc2c1
Streptococcus
  EC50: 12 µM (active)
Prothrombin
  IC50: > 50 µM (not active)
Streptokinase A
  EC50: > 150 µM (not active)
[1]
  EC50: 2.32 µM (active)

## O=C(O)Cc1ccc(NC(=O)CCN2C(=O)c3ccc([N+](=O)[O-])cc3C2=O)cc1
Coagulation factor XII
  IC50: > 50 µM (inactive)

## CCOc1ccc(OCC)c(NC(=O)CCS(=O)(=O)c2ccc(Br)s2)c1
Prothrombin
  IC50: 3.1 µM (active)

## O=C1SCCC1NC(=O)C(c1ccccc1)c1ccccc1 (configuration not stated)
Coagulation factor XII
  IC50: > 50 µM (inactive)

## Cc1nnc2c(-c3ccccc3)nc3ccccc3n12
Prothrombin
  IC50: > 50 µM (not active)

## Cc1ccccc1NC(=O)Nc1ccccc1Br
Prothrombin
  IC50: > 50 µM (not active)

## O=[N+]([O-])c1ccc(O)c(Nc2c([N+](=O)[O-])ccc3nonc23)c1
Nonstructural protein 1
  IC50: 64.5 µM (active)

## O=c1oc(-c2ccco2)nc2c1cnn2-c1ccccc1
Coagulation factor XII
  IC50: 18.2 µM (active)
H9c2
  IC50: > 79 µM (inactive)

## Nc1cccc2cnccc12
Cytochrome P450 2C19
  AC50: 20 µM (inconclusive)
Cytochrome P450 2D6
  AC50: 22.4 µM (inconclusive)
[2]
  IC50: > 50 µM (not active)
Cytochrome P450 2C9
  AC50: 28.2 µM (inconclusive)
[3]
  AC50: > 20 µM (inactive)

## Cc1[nH]n(-c2ccccc2)c(=O)c1N=Nc1ccc2c(c1)OCCO2
Nonstructural protein 1
  IC50: 41.2 µM (active)
Cells [4]
  EC50: > 350 µM (not active)
Cells [5]
  EC50: > 350 µM (not active)

## Cc1ccc(C(=O)N/N=C/c2ccc(-c3ccccc3[N+](=O)[O-])o2)cn1
[6]
  AC50: 30.6 µM (active)
[2]
  IC50: > 50 µM (not active)
Protein RecA
  EC50: 13.5 µM (active)

## O=C(CCc1ccc(O)cc1)N/N=C/c1coc2ccccc2c1=O
Prothrombin
  IC50: 6.25 µM (active)
